# Experimental data from patent US9682976B2, “Protein kinase C inhibitors and uses thereof” (Rigel Pharmaceuticals, Inc., priority 2012, dated 2017).
# pEC50: −log10 of the molar value.
# Tested on: PKC mediated IL-2 production
# Experiment: IL-2 ELISA, human primary T cell, anti CD3+CD28+
# Type: cell-based
# Details: Homo sapiens, T-cell, 24 h, human primary T cells stimulated with αCD3 and αCD28, 24 hours
# Summary of the method: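 Human peripheral blood T cells, pre-expanded with αCD3/αCD28 and IL-2 and then washed free of IL-2, were pre-incubated with compound for 1 h at 37° C. They were then stimulated on plates coated with […] αCD3 and 5 μg/ml αCD28, or with 0.5 ng/ml PMA plus 0.1 uM ionomycin in the counter assay. IL-2 in supernatants was measured by ELISA after 24 h.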
row,pEC50,SMILES
1,> 7.00,"CC1(COc2ccc(Nc3ncc(F)c(N[C@@H]4C[C@@H]5CCCN5C(C)(C)C4)n3)cc2-n2cnnn2)COC1 [Compound 203, N4-((7R,8aS)-5,5-dimethyloctahydroindolizin-7-yl)-5-fluoro-N2-(4-((3-methyloxetan-3-yl)methoxy)-3-(1H-tetrazol-1-yl)phenyl)pyrimidine-2,4-diamine]"
2,6.00 to 6.30,"CC1(C)C[C@H](Nc2nc(Nc3ccc(OCC4(CO)COC4)c(-n4cnnn4)c3)ncc2F)C[C@@H]2CCCN21 [Compound 204, (3-((4-((4-(((7R,8aS)-5,5-dimethyloctahydroindolizin-7-yl)amino)-5-fluoropyrimidin-2-yl)amino)-2-(1H-tetrazol-1-yl)phenoxy)methyl)oxetan-3-yl)methanol]"
3,> 7.00,"CC1(C)C[C@H](Nc2nc(Nc3ccc(OCCO)c(-n4cnnn4)c3)ncc2F)C[C@@H]2CCCN21 [Compound 205, 2-(4-((4-(((7R,8aS)-5,5-dimethyloctahydroindolizin-7-yl)amino)-5-fluoropyrimidin-2-yl)amino)-2-(1H-tetrazol-1-yl)phenoxy)ethan-1-ol]"
4,> 7.00,"CC(O)COc1ccc(Nc2ncc(F)c(N[C@@H]3C[C@@H]4CCCN4C(C)(C)C3)n2)cc1-n1cnnn1 (stereo partly drawn) [Compound 206, 1-(4-((4-(((7R,8aS)-5,5-dimethyloctahydroindolizin-7-yl)amino)-5-fluoropyrimidin-2-yl)amino)-2-(1H-tetrazol-1-yl)phenoxy)propan-2-ol]"
5,> 7.00,"COCCOCCOc1ccc(Nc2ncc(F)c(N[C@@H]3C[C@@H]4CCCN4C(C)(C)C3)n2)cc1-n1cnnn1 [Compound 207, N4-((7R,8aS)-5,5-dimethyloctahydroindolizin-7-yl)-5-fluoro-N2-(4-(2-(2-methoxyethoxy)ethoxy)-3-(1H-tetrazol-1-yl)phenyl)pyrimidine-2,4-diamine]"
6,5.00 to 6.00,"COc1cc(Nc2ncc(F)c(N[C@@H]3C[C@@H]4CCCN4C(C)(C)C3)n2)ccc1O [Compound 208, 4-((4-(((7R,8aS)-5,5-dimethyloctahydroindolizin-7-yl)amino)-5-fluoropyrimidin-2-yl)amino)-2-methoxyphenol]"
7,6.30 to 7.00,"CC1(C)C[C@H](Nc2nc(Nc3ccc(OCC(O)(C(F)(F)F)C(F)(F)F)c(C#N)c3)ncc2F)C[C@@H]2CCCN21 [Compound 209, 5-((4-(((7R,8aS)-5,5-dimethyloctahydroindolizin-7-yl)amino)-5-fluoropyrimidin-2-yl)amino)-2-(3,3,3-trifluoro-2-hydroxy-2-(trifluoromethyl)propoxy)benzonitrile]"
8,> 7.00,"[2H]C([2H])(O)C([2H])([2H])Oc1ccc(Nc2ncc(F)c(N[C@@H]3C[C@@H]4CCCN4C(C)(C)C3)n2)cc1C#N [Compound 210, 5-((4-(((7R,8aS)-5,5-dimethyloctahydroindolizin-7-yl)amino)-5-fluoropyrimidin-2-yl)amino)-2-(2-hydroxyethoxy-1,1,2,2-d4)benzonitrile]"

# Further lines, the molecule ahead of its results:
row,SMILES,pEC50
1,"CCOC(=O)C(C)Oc1cc(F)c(Nc2ncc(F)c(N[C@@H]3C[C@@H]4CCCN4C(C)(C)C3)n2)cc1-n1nnn(C)c1=O (stereo partly drawn) [Compound 184, ethyl 2-(4-((4-(((7R,8aS)-5,5-dimethyloctahydroindolizin-7-yl)amino)-5-fluoropyrimidin-2-yl)amino)-5-fluoro-2-(4-methyl-5-oxo-4,5-dihydro-1H-tetrazol-1-yl)phenoxy)propanoate]",6.30 to 7.00
2,"Cn1nnn(-c2cc(Nc3ncc(F)c(N[C@@H]4C[C@@H]5CCCN5C(C)(C)C4)n3)c(F)cc2OC2CCOC2=O)c1=O (stereo partly drawn) [Compound 185, 1-(5-((4-(((7R,8aS)-5,5-dimethyloctahydroindolizin-7-yl)amino)-5-fluoropyrimidin-2-yl)amino)-4-fluoro-2-((2-oxotetrahydrofuran-3-yl)oxy)phenyl)-4-methyl-1,4-dihydro-5H-tetrazol-5-one]",< 5.00
3,"Cn1nnn(-c2cc(Nc3ncc(F)c(N[C@@H]4C[C@@H]5CCCN5C(C)(C)C4)n3)c(F)cc2OC[C@H](O)CO)c1=O [Compound 188, 1-(2-((R)-2,3-dihydroxypropoxy)-5-((4-(((7R,8aS)-5,5-dimethyloctahydroindolizin-7-yl)amino)-5-fluoropyrimidin-2-yl)amino)-4-fluorophenyl)-4-methyl-1,4-dihydro-5H-tetrazol-5-one]",6.00 to 6.30
4,"CC1(C)C[C@H](Nc2nc(Nc3ccc(OCCO)c(C#N)c3)ncc2F)C[C@@H]2CCCN21 [Compound 189, 5-((4-(((7R,8aS)-5,5-dimethyloctahydroindolizin-7-yl)amino)-5-fluoropyrimidin-2-yl)amino)-2-(2-hydroxyethoxy)benzonitrile]",6.30 to 7.00
5,"COCCOCCOc1ccc(Nc2ncc(F)c(N[C@@H]3C[C@@H]4CCCN4C(C)(C)C3)n2)cc1C#N [Compound 190, 5-((4-(((7R,8aS)-5,5-dimethyloctahydroindolizin-7-yl)amino)-5-fluoropyrimidin-2-yl)amino)-2-(2-(2-methoxyethoxy)ethoxy)benzonitrile]",6.30 to 7.00
6,"CC(=O)O[C@H]1[C@H](OC(C)=O)C(Oc2cc(F)c(Nc3ncc(F)c(N[C@@H]4C[C@@H]5CCCN5C(C)(C)C4)n3)cc2-n2nnn(C)c2=O)OC[C@H]1OC(C)=O (stereo partly drawn) [Compound 191, (3S,4R,5R)-2-(4-((4-(((7R,8aS)-5,5-dimethyloctahydroindolizin-7-yl)amino)-5-fluoropyrimidin-2-yl)amino)-5-fluoro-2-(4-methyl-5-oxo-4,5-dihydro-1H-tetrazol-1-yl)phenoxy)tetrahydro-2H-pyran-3,4,5-triyl triacetate]",5.00 to 6.00
7,"CN(C)CCOc1cc(F)c(Nc2ncc(F)c(N[C@@H]3C[C@@H]4CCCN4C(C)(C)C3)n2)cc1-n1nnn(C)c1=O [Compound 192, 1-(2-(2-(dimethylamino)ethoxy)-5-((4-(((7R,8aS)-5,5-dimethyloctahydroindolizin-7-yl)amino)-5-fluoropyrimidin-2-yl)amino)-4-fluorophenyl)-4-methyl-1,4-dihydro-5H-tetrazol-5-one]",6.30 to 7.00
8,"CN(C)CCOc1cc(F)c(N(CCN(C)C)c2ncc(F)c(N[C@@H]3C[C@@H]4CCCN4C(C)(C)C3)n2)cc1-n1nnn(C)c1=O [Compound 193, 1-(2-(2-(dimethylamino)ethoxy)-5-((2-(dimethylamino)ethyl)(4-(((7R,8aS)-5,5-dimethyloctahydroindolizin-7-yl)amino)-5-fluoropyrimidin-2-yl)amino)-4-fluorophenyl)-4-methyl-1,4-dihydro-5H-tetrazol-5-one]",6.30 to 7.00
9,"CCN(CC)CCOc1cc(F)c(Nc2ncc(F)c(N[C@@H]3C[C@@H]4CCCN4C(C)(C)C3)n2)cc1-n1nnn(C)c1=O [Compound 194, 1-(2-(2-(diethylamino)ethoxy)-5-((4-(((7R,8aS)-5,5-dimethyloctahydroindolizin-7-yl)amino)-5-fluoropyrimidin-2-yl)amino)-4-fluorophenyl)-4-methyl-1,4-dihydro-5H-tetrazol-5-one]",6.30 to 7.00
10,"Cn1nnn(-c2cc(Nc3ncc(F)c(N[C@@H]4C[C@@H]5CCCN5C(C)(C)C4)n3)c(F)cc2OCCN2CCOCC2)c1=O [Compound 195, 1-(5-((4-(((7R,8aS)-5,5-dimethyloctahydroindolizin-7-yl)amino)-5-fluoropyrimidin-2-yl)amino)-4-fluoro-2-(2-morpholinoethoxy)phenyl)-4-methyl-1,4-dihydro-5H-tetrazol-5-one]",6.00 to 6.30
11,"CC1(C)C[C@H](Nc2nc(Nc3ccc(O)c(-n4cnnn4)c3)ncc2F)C[C@@H]2CCCN21 [Compound 196, 4-((4-(((7R,8aS)-5,5-dimethyloctahydroindolizin-7-yl)amino)-5-fluoropyrimidin-2-yl)amino)-2-(1H-tetrazol-1-yl)phenol]",6.30 to 7.00
12,"CC(=O)O[C@H]1[C@H](OC(C)=O)C(Oc2ccc(Nc3ncc(F)c(N[C@@H]4C[C@@H]5CCCN5C(C)(C)C4)n3)cc2C#N)OC[C@H]1OC(C)=O (stereo partly drawn) [Compound 197, (3S,4R,5R)-2-(2-cyano-4-((4-(((7R,8aS)-5,5-dimethyloctahydroindolizin-7-yl)amino)-5-fluoropyrimidin-2-yl)amino)phenoxy)tetrahydro-2H-pyran-3,4,5-triyl triacetate]",6.30 to 7.00
13,"COCCOCCOc1cc(F)c(Nc2ncc(F)c(N[C@@H]3C[C@@H]4CCCN4C(C)(C)C3)n2)cc1-n1nnn(C)c1=O [Compound 198, 1-(5-((4-(((7R,8aS)-5,5-dimethyloctahydroindolizin-7-yl)amino)-5-fluoropyrimidin-2-yl)amino)-4-fluoro-2-(2-(2-methoxyethoxy)ethoxy)phenyl)-4-methyl-1,4-dihydro-5H-tetrazol-5-one]",5.00 to 6.00
14,"Cn1nnn(-c2cc(Nc3ncc(F)c(N[C@@H]4C[C@@H]5CCCN5C(C)(C)C4)n3)c(F)cc2OCC(O)CO)c1=O (stereo partly drawn) [Compound 199, 1-(2-(2,3-dihydroxypropoxy)-5-((4-(((7R,8aS)-5,5-dimethyloctahydroindolizin-7-yl)amino)-5-fluoropyrimidin-2-yl)amino)-4-fluorophenyl)-4-methyl-1,4-dihydro-5H-tetrazol-5-one]",6.00 to 6.30
15,"CC(O)COc1ccc(Nc2ncc(F)c(N[C@@H]3C[C@@H]4CCCN4C(C)(C)C3)n2)cc1C#N (stereo partly drawn) [Compound 201, 5-((4-(((7R,8aS)-5,5-dimethyloctahydroindolizin-7-yl)amino)-5-fluoropyrimidin-2-yl)amino)-2-(2-hydroxypropoxy)benzonitrile]",6.30 to 7.00
16,"COCCOc1ccc(Nc2ncc(F)c(N[C@@H]3C[C@@H]4CCCN4C(C)(C)C3)n2)cc1-n1cnnn1 [Compound 202, N4-((7R,8aS)-5,5-dimethyloctahydroindolizin-7-yl)-5-fluoro-N2-(4-(2-methoxyethoxy)-3-(1H-tetrazol-1-yl)phenyl)pyrimidine-2,4-diamine]",> 7.00

# Same assay, conditions: T-cell, human primary T cells stimulated with αCD3 and αCD28, 24 hours
row,SMILES,pEC50
1,"CC(O)COc1cc(F)c(Nc2ncc(F)c(N[C@@H]3C[C@@H]4CCCN4C(C)(C)C3)n2)cc1-n1nnn(C)c1=O (stereo partly drawn) [Compound 200, 1-(5-((4-(((7R,8aS)-5,5-dimethyloctahydroindolizin-7-yl)amino)-5-fluoropyrimidin-2-yl)amino)-4-fluoro-2-(2-hydroxypropoxy)phenyl)-4-methyl-1,4-dihydro-5H-tetrazol-5-one]",> 7.00
